# Read-outs that look alike come from different tables or passages of the source.
# Experiments:
# Tel-TrkA = target: T1, Tel-TrkA (Homo sapiens, UniProt P04629); assay: Inhibition of proliferation of Ba/F3 cells expressing Tel-TrkA (BaF3/Tel-TrkA, luciferase/Bright Glo readout); format: cell-based; conditions: read-out: Ba/F3 Tel-TrkA IC 50
# T1 construct: dimerization domain of Tel (ETV6) transcription factor (fusion partner, human ETV6 P41212); expressed in transfected cells; host or cells: luciferase expressing Ba/F3 murine hematopoietic progenitor cells; the other entry of the earlier key: ETV6 (P41212, Transcription factor ETV6)
# T1 sequence (P04629 510-796 limits assumed): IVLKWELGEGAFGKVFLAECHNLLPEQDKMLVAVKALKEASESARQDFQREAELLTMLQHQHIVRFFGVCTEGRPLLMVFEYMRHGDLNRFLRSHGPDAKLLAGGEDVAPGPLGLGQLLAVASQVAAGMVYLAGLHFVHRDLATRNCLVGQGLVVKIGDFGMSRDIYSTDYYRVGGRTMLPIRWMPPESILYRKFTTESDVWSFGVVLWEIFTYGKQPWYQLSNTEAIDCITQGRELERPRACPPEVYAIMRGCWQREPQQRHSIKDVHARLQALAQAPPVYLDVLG
# Protocol: (§1) Test compounds were dissolved in DMSO (10 mM) and transferred into 1.4 mL flat bottom or V-shaped Matrix tubes carrying a unique 2D matrix chip by individual compound hubs. The numbers of these chips were distinctively linked to the individual compound identification numbers. The stock solutions were stored at −20° C. if not used immediately. For the test procedure the vials were defrosted and identified by a scanner whereby a working sheet is generated that guides the subsequent working steps.
# (§2) Compound dilutions were made in 384 well plates. This format enabled the assay of maximally 28 individual test compounds at 12 concentrations (single points) including 2 reference compounds. The dilution protocol included the production of pre-dilution plates, master plates and assay plates: • Compound plates: 30 μL of individual compound (10 mM) DMSO solution including standard compound were transferred into columns 1 and 13 of a 384 well plate. 20 μL of DMSO were added to the rest of the wells and the compounds were serially diluted (1:3) by transferring 10 μL from a well in column 1 or 13 to the next well in column 2 or 14 respectively and successively with the help of a Minitrack robot. • Assay plates: Identical assay plates were then prepared by adding […] each of compound dilutions of the compound plates into 384-well “assay plates”. In the following the compounds were mixed with 50 μL of assays components (cells or enzyme) and tested for their inhibitory activity.
# (§3) Compounds of Formula (I) were tested for their antiproliferative effect on Ba/F3 cells expressing either Tel-TrkA, Tel-TrkB or Tel-TrkC and an additional panel of 34 selected diverse kinases activated by fusion to the dimerizing partners Bcr or Tel (Abl, A1K, BMX, EphA3, EphB2, FGFR2, FGFR3, FGFR4, FGR, FLT1, FLT3, FLT4, FMS, IGF1R, InsR, JAK1, JAK2, JAK3, KDR, Kit, Lck, Lyn, MER, MET, PDGFRb, RET, RON, Ros-1, Src, Aurora, TIE2, TYK2, Tie1, ZAP70). The antiproliferative effect of these compounds on the different cell lines and on the non transformed cells were tested at 12 different concentrations of 3-fold serially diluted compounds in 384 well plates as described above (in media lacking IL3). The IC50 values of the compounds the different cell lines were determined from dose response curves.
# (§4) The cell line used is the luciferase expressing Ba/F3 murine hematopoietic progenitor cell line transformed with human Tel-TrkA, Tel-TrkB or Tel-TrkC cDNAs (Ba/F3 EN A/B/C). These cells maintained in RPMI/10% fetal bovine serum (RPMI/FCS) supplemented with penicillin 50 mg/mL, streptomycin 50 mg/mL and L-glutamine […]. Untransformed Ba/F3 cells were similarly maintained with the addition 5 ng/ml of murine recombinant IL3. 50 μl of a Ba/F3 or Ba/F3 EN A/B/C cell suspension were plated in Greiner 384 well microplates (white)) at a density of 2000 cells per well. […] The cells were incubated for 48 hours at 37° C., 5% CO2. 25 μl of Bright Glo® (Promega) luciferase substrate is added to each well. The emited luminiscence is quantified using the ACQUEST™ luminescence system (Molecular Devices). IC50 values were calculated by linear regression analysis of the percentage inhibition of each compound at 12 concentrations.
# Tel-TrkB = target: T2, Tel-TrkB (Homo sapiens, UniProt Q16620); assay: Inhibition of proliferation of Ba/F3 cells expressing Tel-TrkB (BaF3/Tel-TrkB); format: cell-based; conditions: Ba/F3 Tel-TrkB cells; read-out: Ba/F3 Tel-TrkB IC 50
# T2 construct: dimerization domain of Tel (ETV6) transcription factor (fusion partner, human ETV6 P41212); expressed in transfected cells; host or cells: luciferase expressing Ba/F3 murine hematopoietic progenitor cells; the other entry of the earlier key: ETV6 (P41212, Transcription factor ETV6)
# T2 sequence (Q16620 538-822 limits assumed): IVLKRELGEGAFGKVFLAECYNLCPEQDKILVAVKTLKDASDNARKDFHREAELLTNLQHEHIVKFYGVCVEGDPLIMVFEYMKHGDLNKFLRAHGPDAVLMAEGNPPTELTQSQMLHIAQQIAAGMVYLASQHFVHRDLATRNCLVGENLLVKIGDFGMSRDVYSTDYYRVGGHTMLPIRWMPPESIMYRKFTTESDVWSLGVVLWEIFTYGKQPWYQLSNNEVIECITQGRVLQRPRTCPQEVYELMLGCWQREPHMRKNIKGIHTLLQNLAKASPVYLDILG
# Protocol: as §1, §2, §3, §4
# [1] = target: T3, full length rTrkA and mNGF (Rattus norvegicus, UniProt P35739); assay: Inhibition of proliferation of Ba/F3 cells co-expressing full length rTrkA and mNGF (BaF3/TrkA-NFG); format: cell-based; conditions: BaF3 TRKA-NGF cells, CTG readout
# T3 construct: co-expressing full length rTrkA and mNGF; expressed in transfected cells; host or cells: Ba/F3 cells
# T3 sequence (P35739 33-799): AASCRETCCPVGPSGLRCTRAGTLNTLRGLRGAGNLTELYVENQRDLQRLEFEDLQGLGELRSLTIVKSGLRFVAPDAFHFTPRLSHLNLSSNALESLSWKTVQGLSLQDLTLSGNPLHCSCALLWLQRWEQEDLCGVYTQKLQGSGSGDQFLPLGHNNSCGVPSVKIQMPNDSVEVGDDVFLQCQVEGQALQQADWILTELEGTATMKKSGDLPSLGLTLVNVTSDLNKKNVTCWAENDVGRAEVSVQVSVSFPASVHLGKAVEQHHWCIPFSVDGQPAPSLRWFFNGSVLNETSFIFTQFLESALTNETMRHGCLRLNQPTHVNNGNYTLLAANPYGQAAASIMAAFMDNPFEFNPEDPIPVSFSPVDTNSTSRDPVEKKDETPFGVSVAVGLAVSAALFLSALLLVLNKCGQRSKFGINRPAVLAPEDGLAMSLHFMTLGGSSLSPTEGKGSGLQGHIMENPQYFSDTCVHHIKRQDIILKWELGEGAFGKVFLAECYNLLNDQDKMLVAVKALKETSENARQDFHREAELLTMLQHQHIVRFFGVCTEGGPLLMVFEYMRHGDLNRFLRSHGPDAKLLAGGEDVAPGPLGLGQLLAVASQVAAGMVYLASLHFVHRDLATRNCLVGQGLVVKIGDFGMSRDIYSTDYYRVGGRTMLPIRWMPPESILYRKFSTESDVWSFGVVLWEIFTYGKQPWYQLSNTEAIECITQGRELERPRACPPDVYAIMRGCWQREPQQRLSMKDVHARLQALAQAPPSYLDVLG
# T3 sequence (P01139 122-241 partner): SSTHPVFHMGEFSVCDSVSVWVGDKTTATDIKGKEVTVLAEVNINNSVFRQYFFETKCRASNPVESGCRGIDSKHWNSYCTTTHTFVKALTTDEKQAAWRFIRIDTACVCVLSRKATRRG
# parental BaF3 cells = assay: Proliferation of parental (untransformed) Ba/F3 cells maintained with IL3; format: cell-based, murine; conditions: read-out: Ba/F3 IC 50
# Protocol: as §1, §2
# The cell line used is the luciferase expressing Ba/F3 murine hematopoietic progenitor cell line transformed with human Tel-TrkA, Tel-TrkB or Tel-TrkC cDNAs (Ba/F3 EN A/B/C). These cells maintained in RPMI/10% fetal bovine serum (RPMI/FCS) supplemented with penicillin 50 mg/mL, streptomycin 50 mg/mL and L-glutamine […]. Untransformed Ba/F3 cells were similarly maintained with the addition 5 ng/ml of murine recombinant IL3. 50 μl of a Ba/F3 or Ba/F3 EN A/B/C cell suspension were plated in Greiner 384 well microplates (white)) at a density of 2000 cells per well. 50 nl of serially diluted test compound (10-0.0001 mM in DMSO solution) is added to each well. The cells were incubated for 48 hours at 37° C., 5% CO2. 25 μl of Bright Glo® (Promega) luciferase substrate is added to each well. The emited luminiscence is quantified using the ACQUEST™ luminescence system (Molecular Devices). IC50 values were calculated by linear regression analysis of the percentage inhibition of each compound at 12 concentrations.
# [2] = Mus musculus, BaF3, parental Ba/F3 cells
SMILES,IC50 (Tel-TrkA),IC50 (Tel-TrkB),BaF3 TRKA-NGF CTG IC 50 [1],IC50 (parental BaF3 cells; [2]),IC50 (parental BaF3 cells; parental Ba/F3 cells)
Fc1ccc(F)c(C2CCCN2c2ccc3ncn(-c4cccc(-c5ncc[nH]5)c4)c3n2)c1 (centres unmarked) [Table 1-Compound 4],1600 nM,790 nM,–,–,–
CCOC(=O)N1CCC(n2c(=O)[nH]c3cc(-c4cnc5ccc(N6CCOCC6c6cccc(F)c6)nn45)ccc32)CC1 (centres unmarked) [Table 2-Compound 19],2170 nM,1700 nM,1420 nM,5050 nM,–
Fc1cccc(C2COCCN2c2ccc3ncc(-c4ccc(CN5CCOCC5)cn4)n3n2)c1 (centres unmarked) [Table 2-Compound 20],390 nM,390 nM,280 nM,> 10000 nM,–
O=C(NCCO)c1ccc(-c2cnc3ccc(N4CCCC4c4cccc(F)c4)nn23)cn1 (centres unmarked) [Table 3-Compound 19],1020 nM,540 nM,370 nM,> 10000 nM,–
O=C(c1ccc(-c2cnc3ccc(N4CCCC4c4cccc(F)c4)nn23)cn1)N1CCC(O)CC1 (centres unmarked) [Table 3-Compound 26],1020 nM,540 nM,370 nM,> 10000 nM,–
COc1ncc(-c2cnc3ccc(N4CCCC4c4cccc(F)c4)nn23)s1 (centres unmarked) [Table 3-Compound 27],140 nM,93 nM,320 nM,> 10000 nM,–
Fc1cccc(C2CCCN2c2ccc3ncc(-c4csc(CN5CCNCC5)n4)n3n2)c1 (centres unmarked) [Table 3-Compound 30],1100 nM,1060 nM,1340 nM,> 10000 nM,–
O=C(Nc1cnc(-c2cnc3ccc(N4CCCC4c4cccc(F)c4)nn23)cn1)C1CC1 (centres unmarked) [Table 3-Compound 41],200 nM,210 nM,110 nM,200 nM,–
CC1CN(Cc2cccc(-c3cnc4ccc(N5CCCC5c5cccc(F)c5)nn34)n2)CC(C)O1 (centres unmarked) [Table 3-Compound 44],1120 nM,1140 nM,1200 nM,> 10000 nM,–
OC1CCN(Cc2cccc(-c3cnc4ccc(N5CCCC5c5cccc(F)c5)nn34)n2)C1 (centres unmarked) [Table 3-Compound 45],1020 nM,790 nM,1020 nM,8060 nM,–
Fc1cccc(C2CCCN2c2ccc3ncc(-c4cccc(OCCN5CCOCC5)n4)n3n2)c1 (centres unmarked) [Table 4-Compound 25],10 nM,7.1 nM,28 nM,7500 nM,–
CC(C)NC(=O)CN1CCN(c2cccc(-c3cnc4ccc(N5CCCC5c5cccc(F)c5)nn34)n2)CC1 (centres unmarked) [Table 4-Compound 32],1.4 nM,1.5 nM,2.6 nM,–,4990 nM
Fc1cccc(C2COCCN2c2ccc3ncc(-c4cccc(NCCN5CCNCC5)n4)n3n2)c1 (centres unmarked) [Table 7-Compound 10],61 nM,71 nM,77 nM,> 10000 nM,–
Fc1cccc(C2CCCN2c2ccc3ncc(-c4cccc(C5OCCO5)n4)n3n2)c1 (centres unmarked) [Table 7-Compound 18],47 nM,4.8 nM,64 nM,> 10000 nM,–
Fc1cccc(C2CCCN2c2ccc3ncc(-c4cccc(-c5cnco5)n4)n3n2)c1 (centres unmarked) [Table 7-Compound 20],1.8 nM,1.6 nM,3.6 nM,> 10000 nM,–
CC(C)c1noc(C2CCN(c3cccc(-c4cnc5ccc(N6CCOCC6c6cccc(F)c6)nn45)n3)CC2)n1 (centres unmarked) [Table 7-Compound 21],90 nM,67 nM,121 nM,> 10000 nM,–
Fc1cccc(C2CCCN2c2ccc3ncc(-c4cccc(-c5cnc(N6CCOCC6)nc5)n4)n3n2)c1 (centres unmarked) [Table 7-Compound 54],28 nM,37 nM,41 nM,> 10000 nM,–
OC1CCN(c2nccc(-c3cccc(-c4cnc5ccc(N6CCCC6c6cccc(F)c6)nn45)n3)n2)CC1 (centres unmarked) [Table 7-Compound 57],20 nM,20 nM,20 nM,6900 nM,–
CN(C)c1nccc(-c2cccc(-c3cnc4ccc(N5CCCC5c5cccc(F)c5)nn34)n2)n1 (centres unmarked) [Table 7-Compound 58],115 nM,150 nM,210 nM,> 10000 nM,–

# Further lines, with some results ahead:
IC50 (Tel-TrkA),IC50 (Tel-TrkB),BaF3 TRKA-NGF CTG IC 50 [1],SMILES,IC50 (parental BaF3 cells; [2]),IC50 (parental BaF3 cells; parental Ba/F3 cells)
6.9 nM,6.2 nM,8.8 nM,Fc1cccc(C2COCCN2c2ccc3ncc(-c4cccc(N5CCOCC5)n4)n3n2)c1 (centres unmarked) [Table 2-Compound 10],> 10000 nM,–
100 nM,120 nM,140 nM,CC(C)(C)OC(=O)N1CCN(c2cccc(-c3cnc4ccc(N5CCOCC5c5cccc(F)c5)nn34)n2)CC1 (centres unmarked) [Table 2-Compound 16],> 7670 nM,–
10 nM,24 nM,12 nM,OCCC1CCN(c2cccc(-c3cnc4ccc(N5CCOCC5c5cccc(F)c5)nn34)n2)CC1 (centres unmarked) [Table 2-Compound 23],> 10000 nM,–
3.8 nM,6.2 nM,6.4 nM,OCCN1CCN(c2cccc(-c3cnc4ccc(N5CCOCC5c5cccc(F)c5)nn34)n2)CC1 (centres unmarked) [Table 7-Compound 5],4820 nM,–
23 nM,39 nM,62 nM,NC(=O)C1CCCN(c2cccc(-c3cnc4ccc(N5CCOCC5c5cccc(F)c5)nn34)n2)C1 (centres unmarked) [Table 7-Compound 6],> 10000 nM,–
8.2 nM,8.8 nM,6.1 nM,CN1CCC(N2CCN(c3cccc(-c4cnc5ccc(N6CCOCC6c6cccc(F)c6)nn45)n3)CC2)CC1 (centres unmarked) [Table 7-Compound 8],1570 nM,–
81 nM,44 nM,93 nM,CCOC(=O)C1CCN(c2cccc(-c3cnc4ccc(N5CCOCC5c5cccc(F)c5)nn34)n2)CC1 (centres unmarked) [Table 7-Compound 17],> 10000 nM,–
43 nM,23 nM,35 nM,O=C(NOCC1CC1)C1CCN(c2cccc(-c3cnc4ccc(N5CCOCC5c5cccc(F)c5)nn34)n2)CC1 (centres unmarked) [Table 7-Compound 22],> 10000 nM,–
7.7 nM,7.5 nM,12 nM,O=C(C1CCN(c2cccc(-c3cnc4ccc(N5CCOCC5c5cccc(F)c5)nn34)n2)CC1)N1CCC(O)C1 (centres unmarked) [Table 7-Compound 26],> 10000 nM,–

# Reference: US8507488B2, “Fused nitrogen containing heterocycles and compositions thereof as kinase inhibitors” (IRM LLC, priority 2008, dated 2013)
